Results reported in PubChem BioAssay (NCI).
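These data come from cells grown in 96-well plates and exposed to compound for 48 hours at five concentrations. GI50 marks 50% less growth. TGI is the concentration that stops growth completely.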

What was measured:
Test in all cases: inhibition of tumour cell growth, NCI panel, 48 h
[1] = tested on: K-562 leukemia
[2] = tested on: OVCAR-5 ovarian
[3] = tested on: BT-549 breast
[4] = tested on: NCI/ADR-RES ovarian
[5] = tested on: COLO 205 colon
[6] = tested on: UO-31 renal
[7] = tested on: UACC-62 melanoma
[8] = tested on: SF-268 CNS
[9] = tested on: RXF 393 renal
[10] = tested on: A549 NSCLC
[11] = tested on: TK-10 renal
[12] = tested on: OVCAR-4 ovarian
[13] = tested on: NCI-H23 lung
[14] = tested on: SR leukemia
[15] = tested on: HCC-2998 colon
[16] = tested on: HOP-62 NSCLC
[17] = tested on: HCT-15 colon
[18] = tested on: SK-MEL-5 melanoma
[19] = tested on: ACHN renal
[20] = tested on: HCT-116 colon
[21] = tested on: CCRF-CEM leukemia
[22] = tested on: SNB-19 CNS
[23] = tested on: HL-60(TB) leukemia
[24] = tested on: SK-MEL-28 melanoma
[25] = tested on: RPMI-8226 leukemia
[26] = tested on: A498 renal
[27] = tested on: SNB-75 CNS
[28] = tested on: SW-620 colon
[29] = tested on: CAKI-1 renal
[30] = tested on: HT29 colon
[31] = tested on: IGROV1 ovarian
[32] = tested on: PC-3 prostate
[33] = tested on: UACC-257 melanoma
[34] = tested on: NCI-H226 lung
[35] = tested on: OVCAR-3 ovarian
[36] = tested on: HOP-92 NSCLC
[37] = tested on: HS 578T breast
[38] = tested on: M14 melanoma
[39] = tested on: KM12 colon
[40] = tested on: EKVX NSCLC
[41] = tested on: T-47D breast
[42] = tested on: DU-145 prostate
[43] = tested on: SF-295 CNS
[44] = tested on: MDA-MB-435
[45] = tested on: MOLT-4 leukemia
[46] = tested on: OVCAR-8 ovarian
[47] = tested on: SN12C renal
[48] = tested on: NCI-H460 lung
[49] = tested on: MDA-MB-231 breast
[50] = tested on: SF-539 CNS
[51] = tested on: 786-0 renal
[52] = tested on: NCI-H522 lung
[53] = tested on: MCF7 breast
[54] = tested on: U251 CNS
[55] = tested on: SK-MEL-2 melanoma
[56] = tested on: SK-OV-3 ovarian
[57] = tested on: LOX IMVI melanoma

O=C(Cc1ccccc1CCO)NCCc1ccccc1
TGI [1]: > 100 µM | TGI [2]: > 100 µM | TGI [3]: > 100 µM | TGI [4]: > 100 µM | TGI [5]: > 100 µM | TGI [6]: > 100 µM | TGI [7]: > 100 µM | TGI [8]: > 100 µM | TGI [9]: > 100 µM | TGI [10]: > 100 µM | TGI [11]: > 100 µM | TGI [12]: > 100 µM | TGI [13]: > 100 µM | TGI [14]: > 100 µM | TGI [15]: > 100 µM | TGI [16]: > 100 µM | TGI [17]: > 100 µM | TGI [18]: > 100 µM | TGI [19]: > 100 µM | TGI [20]: > 100 µM | TGI [21]: > 100 µM | TGI [22]: > 100 µM | TGI [23]: > 100 µM | TGI [24]: > 100 µM | TGI [25]: > 100 µM | TGI [26]: > 100 µM | TGI [27]: > 100 µM | TGI [28]: > 100 µM | TGI [29]: > 100 µM | TGI [30]: > 100 µM | TGI [31]: > 100 µM | TGI [32]: > 100 µM | TGI [33]: > 100 µM | TGI [34]: > 100 µM | TGI [35]: > 100 µM | TGI [36]: > 100 µM | TGI [37]: > 100 µM | TGI [38]: > 100 µM | TGI [39]: > 100 µM | TGI [40]: > 100 µM | TGI [41]: > 100 µM | TGI [42]: > 100 µM | TGI [43]: > 100 µM | TGI [44]: > 100 µM | TGI [45]: > 100 µM | TGI [46]: > 100 µM | TGI [47]: > 100 µM | TGI [48]: > 100 µM | TGI [49]: > 100 µM | TGI [50]: > 100 µM | TGI [51]: > 100 µM | TGI [52]: > 100 µM | TGI [53]: > 100 µM | TGI [54]: > 100 µM | TGI [55]: > 100 µM | TGI [56]: > 100 µM

Nc1nc(/C=C\c2ccc([N+](=O)[O-])s2)nc(N2CCOCC2)n1
GI50 [1]: 7.71 µM | TGI [1]: 24.7 µM | GI50 [2]: 22.2 µM | TGI [2]: 37.2 µM | GI50 [3]: 9.29 µM | TGI [3]: 26.9 µM | GI50 [4]: 12.7 µM | TGI [4]: 33.3 µM | GI50 [5]: 2.08 µM | TGI [5]: 5.09 µM | GI50 [6]: 14.9 µM | TGI [6]: 30.1 µM | GI50 [7]: 7.08 µM | TGI [7]: 19.7 µM | GI50 [8]: 8.24 µM | TGI [8]: 22 µM | GI50 [9]: 11.1 µM | TGI [9]: 26.2 µM | GI50 [10]: 16.1 µM | TGI [10]: 32.6 µM | GI50 [11]: 22 µM | TGI [11]: 46.9 µM | GI50 [12]: 2.65 µM | TGI [12]: 15.3 µM | GI50 [13]: 10.2 µM | TGI [13]: 22.7 µM | GI50 [14]: 5.14 µM | TGI [14]: 20.3 µM | GI50 [15]: 5.18 µM | TGI [15]: 16.7 µM | GI50 [16]: 17.8 µM | TGI [16]: 32.9 µM | GI50 [18]: 5.84 µM | TGI [18]: 19.1 µM | GI50 [19]: 5.06 µM | TGI [19]: 17.7 µM | GI50 [20]: 2.98 µM | TGI [20]: 10.9 µM | GI50 [21]: 3.33 µM | TGI [21]: 16.9 µM | GI50 [22]: 23.3 µM | TGI [22]: 69.5 µM | GI50 [23]: 6.45 µM | TGI [23]: 26.2 µM | GI50 [24]: 17.9 µM | TGI [24]: 38.2 µM | GI50 [25]: 3.45 µM | TGI [25]: 17.6 µM | GI50 [26]: 9 µM | TGI [26]: 22.7 µM | GI50 [57]: 2.12 µM | TGI [57]: 9.52 µM | GI50 [27]: 13.8 µM | TGI [27]: 34.2 µM | GI50 [28]: 13.9 µM | TGI [28]: > 100 µM | GI50 [29]: 19.7 µM | TGI [29]: 39.6 µM | GI50 [31]: 4.93 µM | TGI [31]: 19.8 µM | GI50 [32]: 11.5 µM | TGI [32]: 28.1 µM | GI50 [33]: 10.7 µM | TGI [33]: 23.1 µM | GI50 [34]: 16 µM | TGI [34]: 46.2 µM | GI50 [35]: 15.2 µM | TGI [35]: 37.5 µM | GI50 [36]: 13.2 µM | TGI [36]: 28.1 µM | GI50 [37]: 25.6 µM | TGI [37]: > 100 µM | GI50 [38]: 10.5 µM | TGI [38]: 24.7 µM | GI50 [39]: 3.5 µM | TGI [39]: 16.5 µM | GI50 [40]: 17.8 µM | TGI [40]: 56.8 µM | GI50 [41]: 8.98 µM | TGI [41]: 28.1 µM | GI50 [42]: 11 µM | TGI [42]: 26.7 µM | GI50 [43]: 36.4 µM | TGI [43]: > 100 µM | GI50 [44]: 8.19 µM | TGI [44]: 22.8 µM | GI50 [45]: 11.1 µM | TGI [45]: 42.1 µM | GI50 [46]: 13.7 µM | TGI [46]: > 100 µM | GI50 [47]: 13 µM | TGI [47]: 26.4 µM | GI50 [48]: 13.7 µM | TGI [48]: 26.6 µM | GI50 [49]: 5.55 µM | TGI [49]: 19.1 µM | GI50 [50]: 19.7 µM | TGI [50]: 46.3 µM | GI50 [51]: 15.8 µM | TGI [51]: 30.1 µM | GI50 [52]: 4.57 µM | TGI [52]: 17.1 µM | GI50 [53]: 5.77 µM | TGI [53]: 19.5 µM | GI50 [55]: 17.4 µM | TGI [55]: 44.7 µM | GI50 [56]: 16.3 µM | TGI [56]: 43 µM
